Columns and labels:
[1] = cited from earlier work
[2] = Biopharmaceutics Classification System class; cited from earlier work
[3] = Incorporation of therapeutic compound into glycerolipid formulations with digestion enhancers (visual; cooling and remelting); conditions: for behaviour on stepwise hard fat addition (visual): then GELUCIRE 43/01 up to 1,000 mg
[4] = Solubility of therapeutic compound in heated lipids in the absence of cholic acid (visual); conditions: 60° C., stirred at least 60 minutes; only MAISINE CC and MAISINE CC/GELUCIRE 43/01 in ratios of 2:1 to 1:2
Protocol: ® 43/01, was then added in a stepwise fashion of 6 g to this lipid mixture until the total amount reached 24 g. […]

[5] = Formulating procedure: dissolution and stable incorporation in glycerolipid admixture/matrix; format: physicochemical; conditions: as shown in Example 3
Protocol: As a first step, it is first determined whether a selected therapeutic compound can be formulated using 1) glycerolipids including at least one liquid fat (glycerolipid that is liquid at 18° C.) and at least one hard fat (glycerolipid that is solid at 18° C.) and 2) one or more digestion enhancers. In some embodiments, the one or more liquid and hard fats are first heated and the one or more digestion enhancers are solubilized in the glycerolipid admixture. Upon completion of solubility of the digestion enhancers, and if appropriate, the temperature of the admixture can be adjusted and a selected therapeutic compound is then dissolved in this heated admixture to incorporate the compound. […] In some embodiments, the one or more liquid fats are first heated and the one or more digestion enhancers are solubilized in the liquid fats. […] The initial heating step in all procedures is performed at a temperature sufficient to dissolve the one or more digestion enhancers and selected therapeutic compound and can be empirically determined based on the melting point of the selected components. […] Any subsequent adjustment to the heat when one or more liquid fats and/or one or more hart fats are being added to the admixture is performed at a temperature sufficient to melt the hard fats and can be empirically determined based on the melting point of the hard fat used in the formulation. […]

[6] = previous studies; cited from earlier work
[7] = Oleic acid miscibility / self-emulsification in dissolution media modelling ICH dissolution testing; format: physicochemical; conditions: 1 g (100% or 75%) in one liter PBS with […] curcumin, 37° C., 300 rpm 10 minutes, then 10 minutes without stirring
Protocol: To assess whether oleic acid could self-emulsify at the concentrations used in the disclosed pharmaceutical compositions, experiments was performed that were designed to model dissolution testing according to International Council for Harmonisation (ICH) guidelines. […] Miscibility experiments were performed using two concentrations of oleic acid nominally above the CMC concentration for this fatty acid. In one series of experiments, 1 g of 100% oleic acid was added to the dissolution media. The control compound was 1 g of 100% MAISINE™ CC. In a second series of experiments 1 g of 75% oleic acid (diluted with 250 mg of MAISINE™ CC) was added to the dissolution media. The control compound was 1 g of 75% MAISINE™ CC. The miscibility of oleic acid and MAISINE™ CC was assessed by observing the dissolution media for 10 minutes with constant stirring and then 10 minutes without stirring. Photographs were taken at time 0, 1, 2, 3, 4, 5 and 10 minutes during the stirring phase and 2, 4 and 10 minutes after stirring ceased.
Both oleic acid preparations quickly distributed throughout the PBS in small but clearly defined lipid droplets which were still observable after 10 minutes of stirring. On cessation of stirring, the lipid droplets either adhered to the stirrer or floated to the top of the PBS, with the bulk of the PBS clearing. […]

[8] = reported value; cited from earlier work

SMILES | Log P [1] | other results
C[C@]12CC[C@H](O)CC1=CC[C@@H]1[C@@H]2CC[C@]2(C)C(c3cccnc3)=CC[C@@H]12 [Abiraterone] | >1 | 
CN(C)CCC=C1c2ccccc2CCc2ccccc21 [Amitriptyline] | >1 | BCS [2]: I
CC(C)c1ccc2oc3nc(N)c(C(=O)O)cc3c(=O)c2c1 [Amlexanox] | >1 | 
C[C@@H](O[C@H]1OCCN(Cc2n[nH]c(=O)[nH]2)[C@H]1c1ccc(F)cc1)c1cc(C(F)(F)F)cc(C(F)(F)F)c1 [Aprepitant] | >1 | incorporation into heated glycerolipid mixture (visual) ([3]; 50 mg with 40 mg cholic acid added to 500 mg MAISINE CC and 1,000 mg GELUCIRE 43/01 together, about 120° C. to about 160° C.): failed to incorporate; behaviour on stepwise hard fat addition (visual) ([3]; 50 mg with 40 mg cholic acid in 500 mg MAISINE CC, about 120° C. to about 160-170° C.): remained in solution; behaviour on stepwise hard fat addition (visual) ([3]; 60 mg dissolved in 500 mg MAISINE CC without cholic acid, about 120° C. to about 160° C.): precipitate
CC(=O)OC[C@H]1O[C@@H]([S-])[C@H](OC(C)=O)[C@@H](OC(C)=O)[C@@H]1OC(C)=O.CCP(CC)CC.[Au+] [Auranofin] |  | solubility in heated lipid in the absence of cholic acid (visual) [4]: remained insoluble
CC(C)(C)c1cc(NC(=O)Nc2ccc(Oc3ccnc4[nH]c(=O)cnc34)cc2F)n(-c2cccc(F)c2)n1 [CCT3833] | >1 | 
COc1cc(/C=C/C(=O)CC(=O)/C=C/c2ccc(O)c(OC)c2)ccc1O [Curcumin] | >1 | solubility using a formulation disclosed herein [5]: soluble
CCCCCCCC(=O)N[C@H](CN1CCCC1)[C@H](O)c1ccc2c(c1)OCCO2 [Eliglustat] | >1 | BCS [2]: I or III
CC(C)OC(=O)C(C)(C)Oc1ccc(C(=O)c2ccc(Cl)cc2)cc1 [Fenofibrate] | >1 | 
Cc1ccc(C)c(OCCCC(C)(C)C(=O)O)c1 [Gemfibrozil] | >1 | 
COC(=O)Nc1nc2ccc(C(=O)c3ccccc3)cc2[nH]1 [Mebendazole] | >1 | 
CN(C)C(=N)N=C(N)N [Metformin] |  | BCS [2]: I
CO[C@@H]1[C@H](N(C)C(=O)c2ccccc2)C[C@H]2O[C@]1(C)n1c3ccccc3c3c4c(c5c6ccccc6n2c5c31)C(=O)NC4 [Midostaurin] | >1 | 
O=C(O)c1cccnc1 [Niacin] | <1 | BCS [2]: I
COC(=O)c1ccc2c(c1)NC(=O)/C2=C(\Nc1ccc(N(C)C(=O)CN2CCN(C)CC2)cc1)c1ccccc1 [Nintedanib] | >1 | BCS [2]: II or IV
CO[C@@H]1[C@@H](OC(N)=O)[C@@H](O)[C@H](Oc2ccc3c(O)c(NC(=O)c4ccc(O)c(CC=C(C)C)c4)c(=O)oc3c2C)OC1(C)C [Novobiocin] | >1 | 
O=C(c1cc(Cc2n[nH]c(=O)c3ccccc23)ccc1F)N1CCN(C(=O)C2CC2)CC1 [Olaparib] | >1 | appearance on remelting of the solid composition (visual) ([3]; MAISINE CC, fatty acid component, cholic acid and GELUCIRE 43/01, 130° C., cooled, remelted at 50° C.): no precipitate formation; behaviour on cooling and solidification (visual) ([3]; MAISINE CC, oleic acid and GELUCIRE 43/01 without cholic acid, 130° C., cooled to room temperature): precipitated out of solution
COc1ccc2[nH]c([S+]([O-])Cc3ncc(C)c(OC)c3C)nc2c1 (centres unmarked) [Omeprazole] | >1 | 

SMILES | Log P [1] | other results
Cc1ccc(=O)n(-c2ccccc2)c1 [Pirfenidone] | >1 | BCS [2]: I
Clc1ccc(CCCOCCCN2CCCCC2)cc1 [Pitolisant] | >1 | BCS [2]: I
O=C(C1CCCCC1)N1CC(=O)N2CCc3ccccc3C2C1 (centres unmarked) [Praziquantel] | >1 | 
CC(=O)[C@H]1CC[C@H]2[C@@H]3CCC4=CC(=O)CC[C@]4(C)[C@H]3CC[C@]12C [Progesterone] | >1 | 
CC(C)NCC(O)COc1cccc2ccccc12 (centres unmarked) [Propranolol] |  | BCS [2]: I
O=C(c1ccc(OCCN2CCCCC2)cc1)c1c(-c2ccc(O)cc2)sc2cc(O)ccc12 [Raloxifene] | >1 | 
O=C(NC(Cc1cc(=O)[nH]c2ccccc12)C(=O)O)c1ccc(Cl)cc1 (centres unmarked) [Rebamipide] | >1 | 
CC1=C(/C=C/C(C)=C/C=C/C(C)=C/C(=O)O)C(C)(C)CCC1 [Retinoic acid] | >1 | 
C[C@H](O)[C@H](O)[C@H]1CNc2nc(N)[nH]c(=O)c2N1 [Sapropterin] | <1 | BCS [2]: I
NCCc1c[nH]c2ccc(O)cc12 [Serotonin] | <1 | 
N[C@@H](Cc1c[nH]c2ccccc12)C(=O)O [Tryptophan] | <1 | 
C=C(C)[C@@H]1CCC(C)=C[C@H]1c1c(O)cc(CCCCC)cc1O [cannabidiol] |  | solubility in a glycerolipid admixture of MAISINE CC and GELUCIRE 43/01 [6]: soluble
COc1ccc2cc([C@H](C)C(=O)O)ccc2c1 [naproxen sodium] |  | incorporation into heated glycerolipid mixture (visual) ([3]; 393 mg alone added to 500 mg MAISINE CC and 1,000 mg GELUCIRE 43/01, about 130° C.): failed to incorporate
COC(=O)c1ccc2c(c1)NC(=O)/C2=C(\Nc1ccc(N(C)C(=O)CN2CCN(C)CC2)cc1)c1ccccc1 [nintedanib esylate] |  | incorporation into heated glycerolipid mixture (visual) ([3]; 40 mg in 1.0 g MAISINE CC with 1.5 g oleic acid and 100 or 150 mg sodium oleate or sodium stearate, about 130° C., no cholic acid or lecithin): failed to incorporate; incorporation into heated glycerolipid mixture (visual) ([3]; 40 mg in 1.0 g MAISINE CC with 1.5 g oleic acid, sodium oleate or sodium stearate, and 30 mg of cholic acid or 30 mg lecithin, about 130° C.): became soluble
CCCCCCCC/C=C\CCCCCCCC(=O)O [oleic acid] |  | miscibility in the dissolution media [7]: not miscible; critical micellar concentration (CMC) [8]: 2.3 mM
Clc1ccc(CCCOCCCN2CCCCC2)cc1 [pitolosant] |  | solubility in heated lipid in the absence of cholic acid (visual) [4]: remained insoluble
CCCCCCCCCCCCCCCCCC(=O)[O-].[Na+] [sodium stearate] |  | critical micellar concentration (CMC) [8]: 0.071 mM
